Experimental findings from patent publication US5214153A, “Actinoplanes transformation process anti-hypertensive compound and method of use thereas” (Merck & Co., Inc., priority 1992, dated 1993) are described below.

The target in this assay is T1, Angiotensin II (A II) receptor (Oryctolagus cuniculus, UniProt P34976).
T1 construct: 125I-Sar1Ile8-angiotensin II displacement
T1 sequence (P34976 1-359): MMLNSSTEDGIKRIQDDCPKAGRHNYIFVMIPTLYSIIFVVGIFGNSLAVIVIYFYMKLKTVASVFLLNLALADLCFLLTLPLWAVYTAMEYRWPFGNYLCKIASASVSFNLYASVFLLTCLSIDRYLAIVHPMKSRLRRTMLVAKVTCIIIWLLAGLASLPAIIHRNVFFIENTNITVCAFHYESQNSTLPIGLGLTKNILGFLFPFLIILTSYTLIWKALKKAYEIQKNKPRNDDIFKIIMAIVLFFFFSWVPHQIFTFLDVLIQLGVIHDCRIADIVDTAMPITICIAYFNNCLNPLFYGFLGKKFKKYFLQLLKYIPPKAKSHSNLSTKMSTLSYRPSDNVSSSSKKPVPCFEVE
As to the kind of experiment: Receptor Binding Assay Using Rabbit Aortae Membrane Preparation ("IC50" assay). Here is the method:
This assay is also referred to herein as the "IC50 " assay.
Receptor Binding Assay Using Rabbit Aortae Membrane Preparation
Three frozen rabbit aortae (obtained from Pel-Freeze Biologicals) were suspended in 5 mM Tris-0.25M Sucrose, pH 7.4 buffer (50 mL) homogenized, and then centrifuged. The mixture was filtered through a cheesecloth and the supernatant was centrifuged for 30 minutes at 20,000 rpm at 4° C. The pellet thus obtained was resuspended in 30 mL of 50 mM Tris-5 mM MgCl2 buffer containing 0.2% Bovine Serum Albumin and 0.2 mg/mL Bacitratin and the suspension was used for 100 assay tubes. Samples tested for screening were done in duplicate. To the membrane preparation (0.25 mL) there was added ^125 I-Sar^1 Ile^8 -angiotensin II [obtained from New England Nuclear] (10 uL; 20,000 cpm) with or without the test sample and the mixture was incubated at 37° C. for 90 minutes. The mixture was then diluted with ice-cold 50 mM Tris-0.9% NaCl, pH 7.4 (4 mL) and filtered through a glass fiber filter (GF/B Whatman 2.4" diameter). The filter was soaked in scintillation cocktail (10 mL) and counted for radioactivity using Packard 2660 Tricarb liquid scintillation counter. […]

In the case of `CC(O)CCc1nc(Cl)c(CO)n1Cc1ccc(-c2ccccc2-c2nnn[nH]2)cc1` (stereo not shown) [compound (I)], the “A II antagonist activity by the IC50 assay” value is given as “exhibits A II antagonist activity”.
